Experimental findings from patent US9309263B2, “Fused multi-cyclic sulfone compounds as inhibitors of beta-secretase and methods of use thereof” (AMGEN INC., priority 2013, dated 2016) are described below.

Read-outs that look alike come from different tables or passages of the source.

One assay deals with Cathepsin D (Cat D) (Homo sapiens, UniProt P07339). The experiment in a line: In vitro enzymatic Cathepsin D (Cat D) FRET assay. The class given is biochemical. The method in brief:
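FRET peptide substrate (20 nM) is cleaved by CHO-derived recombinant enzyme (9 nM) for 1 h after a 1 h inhibitor pre-incubation, at pH 3.5 in citrate buffer with 5 mM CHAPS and 10% DMSO. Tris addition ends the reaction; fluorescence measured at 500 nm excitation, 580 nm emission.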

Assay [1] concerns the target Beta Secretase enzyme (BACE) (Homo sapiens, UniProt P56817). Briefly: In vitro enzymatic BACE FRET assay. It counts as biochemical. Conditions: average IC50; read-out: BACE1 FRET assay IC50. The method in brief:
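Cleavage of a quenched 50 nM FRET peptide substrate, read as fluorescence (excitation 488 nm, […]) after 1 h and Tris quench to neutrality. Buffer: 0.05 M acetate pH 4.2 with 10% DMSO and 100 uM genapol. Inhibitor dilutions were pre-incubated 1 h with 0.2 nM enzyme.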

Assay [2] has as its system Aβ 40 in conditioned medium of cells stably expressing Amyloid Precursor Protein (APP). The experiment in a line: In vitro BACE cell-based assay (Aβ 40 sandwich ELISA). Conditions: Homo sapiens, HEK293; HEK cell; average IC50. In a few lines:
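Aβ40 in conditioned medium measured by pAb40/biotin-6E10 sandwich ELISA with time-resolved europium fluorescence, after 24 h exposure of stable APP cells to compounds (10-point series starting 100 μM or 10 μM; 0.1% DMSO). IC50 fitted from percent of control against concentration.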

Setting [3] is: text summary referring to data in Table 2.

Chain of Cathepsin D (Cat D) (P07339 65-412, species assumed): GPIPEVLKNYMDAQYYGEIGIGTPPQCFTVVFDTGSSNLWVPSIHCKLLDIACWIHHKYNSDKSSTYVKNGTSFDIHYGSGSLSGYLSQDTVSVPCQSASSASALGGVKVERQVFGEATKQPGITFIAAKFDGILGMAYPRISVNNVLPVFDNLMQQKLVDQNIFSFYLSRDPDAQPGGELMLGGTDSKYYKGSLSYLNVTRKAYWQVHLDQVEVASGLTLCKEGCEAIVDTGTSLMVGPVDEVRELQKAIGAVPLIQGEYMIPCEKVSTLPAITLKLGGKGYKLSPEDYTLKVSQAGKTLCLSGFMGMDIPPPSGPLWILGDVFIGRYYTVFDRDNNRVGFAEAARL
Chain of Beta Secretase enzyme (BACE) (P56817 46-501): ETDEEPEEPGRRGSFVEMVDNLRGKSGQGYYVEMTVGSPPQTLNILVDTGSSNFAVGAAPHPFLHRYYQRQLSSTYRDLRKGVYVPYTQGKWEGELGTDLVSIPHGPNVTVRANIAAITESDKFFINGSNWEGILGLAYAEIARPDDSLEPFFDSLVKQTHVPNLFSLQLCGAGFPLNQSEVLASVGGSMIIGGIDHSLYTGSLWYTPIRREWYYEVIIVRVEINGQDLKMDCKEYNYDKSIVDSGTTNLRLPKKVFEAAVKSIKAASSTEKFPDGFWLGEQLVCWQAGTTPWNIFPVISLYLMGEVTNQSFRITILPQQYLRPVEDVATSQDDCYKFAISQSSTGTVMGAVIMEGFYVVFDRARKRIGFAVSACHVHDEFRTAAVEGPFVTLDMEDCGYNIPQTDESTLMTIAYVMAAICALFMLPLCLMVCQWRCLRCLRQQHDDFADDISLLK

In general, IC50 refers to the midpoint of a concentration-inhibition curve. In the case of `Cc1cc(C#N)cnc1C(=O)Nc1ccc2c(c1)[C@@]1(C)N=C(N)C(C)(C)S(=O)(=O)[C@H]1CCC2` [Example 37, N-((4aS,11bR)-2-amino-3,3,11b-trimethyl-4,4-dioxido-3,4a,5,6,7,11b-hexahydrobenzo[3,4]cyclohepta[1,2-b][1,4]thiazin-10-yl)-5-cyano-3-methyl-2-pyridinecarboxamide], the IC50 is greater than 400 µM at Cathepsin D (Cat D) (read-out: CatD IC50), 0.036 µM in assay [1] and 0.016 µM in assay [2].

For the molecule `CC1(C)C(N)=N[C@]2(C)c3cc(NC(=O)c4ccc(Cl)cn4)ccc3CCC[C@@H]2S1(=O)=O` [Example 38, N-((4aS,11bR)-2-amino-3,3,11b-trimethyl-4,4-dioxido-3,4a,5,6,7,11b-hexahydrobenzo[3,4]cyclohepta[1,2-b][1,4]thiazin-10-yl)-5-chloro-2-pyridinecarboxamide], the IC50 on Cathepsin D (Cat D) (read-out: CatD IC50) is greater than 400 µM; in assay [1], 0.099 µM; in assay [2], 0.15 µM.

`Cc1cc(OC(F)F)cnc1C(=O)Nc1ccc2c(c1)[C@@]1(C)N=C(N)C(C)(C)S(=O)(=O)[C@H]1CCC2` [Example 39, N-((4aS,11bR)-2-amino-3,3,11b-trimethyl-4,4-dioxido-3,4a,5,6,7,11b-hexahydrobenzo[3,4]cyclohepta[1,2-b][1,4]thiazin-10-yl)-5-(difluoromethoxy)-3-methyl-2-pyridinecarboxamide]: the IC50 on Cathepsin D (Cat D) (read-out: CatD IC50) was greater than 400 µM; in assay [1], 0.142 µM; in assay [2], 0.022 µM.

Regarding `Cc1cc(C(F)F)cnc1C(=O)Nc1ccc2c(c1)[C@@]1(C)N=C(N)C(C)(C)S(=O)(=O)[C@@H]1CCC2` [Example 40, N-((4aR,11bR)-2-amino-3,3,11b-trimethyl-4,4-dioxido-3,4a,5,6,7,11b-hexahydrobenzo[3,4]cyclohepta[1,2-b][1,4]thiazin-10-yl)-5-(difluoromethyl)-3-methyl-2-pyridinecarboxamide], the results for the IC50 (at Cathepsin D (Cat D) (read-out: CatD IC50); in assay [1]; in assay [2]) were greater than 400 µM, 0.035 µM and 0.015 µM, respectively.

`Cc1cc(OC(F)F)cnc1C(=O)Nc1ccc2c(c1)[C@@]1(C)N=C(N)C(C)(C)S(=O)(=O)[C@@H]1CCC2` [Example 41, N-((4aR,11bR)-2-amino-3,3,11b-trimethyl-4,4-dioxido-3,4a,5,6,7,11b-hexahydrobenzo[3,4]cyclohepta[1,2-b][1,4]thiazin-10-yl)-5-(difluoromethoxy)-3-methyl-2-pyridinecarboxamide]: the IC50 was 5550 µM on Cathepsin D (Cat D) (read-out: CatD IC50), greater than 1200 µM on Cathepsin D (Cat D) (setting [3]), 0.018 µM in assay [1] and 0.005 µM in assay [2].

Consider `COc1cnc(C(=O)Nc2ccc3c(c2)[C@@]2(C)N=C(N)C(C)(C)S(=O)(=O)[C@@H]2CCC3)c(C)c1` [Example 42, N-((4aR,11bR)-2-amino-3,3,11b-trimethyl-4,4-dioxido-3,4a,5,6,7,11b-hexahydrobenzo[3,4]cyclohepta[1,2-b][1,4]thiazin-10-yl)-5-methoxy-3-methyl-2-pyridinecarboxamide], for which the IC50 at Cathepsin D (Cat D) (read-out: CatD IC50) was 2980 µM; on Cathepsin D (Cat D) (setting [3]), greater than 1200 µM; in assay [1], 0.067 µM; in assay [2], 0.032 µM.

For the molecule `CC1(C)C(N)=N[C@]2(C)c3cc(NC(=O)c4ccc(Cl)cn4)ccc3CCC[C@H]2S1(=O)=O` [Example 43, N-((4aR,11bR)-2-amino-3,3,11b-trimethyl-4,4-dioxido-3,4a,5,6,7,11b-hexahydrobenzo[3,4]cyclohepta[1,2-b][1,4]thiazin-10-yl)-5-chloro-2-pyridinecarboxamide], the figures for the IC50 (at Cathepsin D (Cat D) (read-out: CatD IC50); in assay [1]; in assay [2]) were 458 µM, 0.012 µM and 0.019 µM, respectively.

For the molecule `CC1(C)C(N)=N[C@]2(C)c3cc(NC(=O)c4ncc(Cl)cc4Cl)ccc3CCC[C@H]2S1(=O)=O` [Example 44, N-((4aR,11bR)-2-amino-3,3,11b-trimethyl-4,4-dioxido-3,4a,5,6,7,11b-hexahydrobenzo[3,4]cyclohepta[1,2-b][1,4]thiazin-10-yl)-3,5-dichloro-2-pyridinecarboxamide], the results for the IC50 (on Cathepsin D (Cat D) (read-out: CatD IC50); in assay [1]; in assay [2]) were 541 µM, 0.005 µM and 0.016 µM, respectively.

On to `Cc1cc(C(F)(F)F)cnc1C(=O)Nc1ccc2c(c1)[C@@]1(C)N=C(N)C(C)(C)S(=O)(=O)[C@@H]1CCC2` [Example 45, N-((4aR,11bR)-2-amino-3,3,11b-trimethyl-4,4-dioxido-3,4a,5,6,7,11b-hexahydrobenzo[3,4]cyclohepta[1,2-b][1,4]thiazin-10-yl)-3-methyl-5-(trifluoromethyl)-2-pyridinecarboxamide], for which the IC50 on Cathepsin D (Cat D) (read-out: CatD IC50) was 1460 µM; at Cathepsin D (Cat D) (setting [3]) it was greater than 1200 µM; in assay [1] it was 0.018 µM; in assay [2], 0.006 µM.

As for `CC1(C)C(N)=N[C@]2(C)c3cc(Nc4nccc5cc(Cl)cnc45)ccc3CCC[C@H]2S1(=O)=O` [Example 46, (4aR,11bR)-N^~10^~-(3-chloro-1,7-naphthyridin-8-yl)-3,3,11b-trimethyl-3,4a,5,6,7,11b-hexahydrobenzo[3,4]cyclohepta[1,2-b][1,4]thiazine-2,10-diamine 4,4-dioxide], the IC50 at Cathepsin D (Cat D) (read-out: CatD IC50) amounted to 85.9 µM; in assay [1], 0.01 µM; in assay [2], 0.102 µM.

Consider `CC1(C)C(N)=N[C@]2(C)c3cc(Nc4nccc5cc(C#N)cnc45)ccc3CCC[C@H]2S1(=O)=O` [Example 47, 8-(((4aR,11bR)-2-amino-3,3,11b-trimethyl-4,4-dioxido-3,4a,5,6,7,11b-hexahydrobenzo[3,4]cyclohepta[1,2-b][1,4]thiazin-10-yl)amino)-1,7-naphthyridine-3-carbonitrile], for which the IC50 at Cathepsin D (Cat D) (read-out: CatD IC50) is 338 µM; in assay [1], 0.008 µM; in assay [2] it was 0.042 µM.

Take `COc1cnc2c(Nc3ccc4c(c3)[C@@]3(C)N=C(N)C(C)(C)S(=O)(=O)[C@@H]3CCC4)nccc2n1` [Example 48, (4aR,11bR)-N^~10^~-(2-methoxypyrido[3,4-b]pyrazin-5-yl)-3,3,11b-trimethyl-3,4a,5,6,7,11b-hexahydrobenzo[3,4]cyclohepta[1,2-b][1,4]thiazine-2,10-diamine 4,4-dioxide]: the IC50 on Cathepsin D (Cat D) (read-out: CatD IC50) was determined as 393 µM; in assay [1], 0.041 µM; in assay [2], 0.041 µM.

Turning to `Cc1c(C(=O)Nc2ccc3c(c2)[C@@]2(C)N=C(N)C(C)(C)S(=O)(=O)[C@@H]2CCC3)nc2ccc(Cl)cn12` [Example 49, N-((4aR,11bR)-2-amino-3,3,11b-trimethyl-4,4-dioxido-3,4a,5,6,7,11b-hexahydrobenzo[3,4]cyclohepta[1,2-b][1,4]thiazin-10-yl)-6-chloro-3-methylimidazo[1,2-a]pyridine-2-carboxamide], the IC50 is 394 µM at Cathepsin D (Cat D) (read-out: CatD IC50), 0.082 µM in assay [1] and 0.013 µM in assay [2].

As for `CC#CCOc1cnc(C(=O)Nc2ccc3c(c2)[C@@]2(C)N=C(N)C(C)(C)S(=O)(=O)[C@@H]2CCC3)cn1` [Example 50, N-((4aR,11bR)-2-amino-3,3,11b-trimethyl-4,4-dioxido-3,4a,5,6,7,11b-hexahydrobenzo[3,4]cyclohepta[1,2-b][1,4]thiazin-10-yl)-5-(2-butyn-1-yloxy)-2-pyrazinecarboxamide], the IC50 on Cathepsin D (Cat D) (read-out: CatD IC50) came to 120 µM; in assay [1], 0.0007 µM; in assay [2], 0.0002 µM.

For the molecule `CC#CCOc1cnc(C(=O)Nc2ccc3c(c2)[C@@]2(C)N=C(N)C(C)(C)S(=O)(=O)[C@@H]2C[C@H](C)O3)cn1` [Example 51, N-((4aR,6S,11bR)-2-amino-3,3,6,11b-tetramethyl-4,4-dioxido-4a,5,6,11b-tetrahydro-3H-[1]benzoxepino[4,5-b][1,4]thiazin-10-yl)-5-(2-butyn-1-yloxy)-2-pyrazinecarboxamide], the results for the IC50 (at Cathepsin D (Cat D) (read-out: CatD IC50); in assay [1]; in assay [2]) were 461 µM, 0.001 µM and 0.0004 µM, respectively.

With `COc1cnc2c(Nc3ccc4c(c3)[C@@]3(C)N=C(N)C(C)(C)S(=O)(=O)[C@@H]3C[C@H](C)O4)ncc(F)c2c1` [Example 52, (4aR,6S,11bR)-N^~10^~-(5-fluoro-3-methoxy-1,7-naphthyridin-8-yl)-3,3,6,11b-tetramethyl-4a,5,6,11b-tetrahydro-3H-[1]benzoxepino[4,5-b][1,4]thiazine-2,10-diamine 4,4-dioxide], the IC50 stood at 174 µM at Cathepsin D (Cat D) (read-out: CatD IC50), 0.014 µM in assay [1] and 0.022 µM in assay [2].

Take `COc1cnc2c(Nc3ccc4c(c3)[C@@]3(C)N=C(N)C(C)(C)S(=O)(=O)[C@@H]3C[C@H](C)O4)nccc2n1` [Example 53, (4aR,6S,11bR)-N^~10^~-(2-methoxypyrido[3,4-b]pyrazin-5-yl)-3,3,6,11b-tetramethyl-4a,5,6,11b-tetrahydro-3H-[1]benzoxepino[4,5-b][1,4]thiazine-2,10-diamine 4,4-dioxide]: the IC50 at Cathepsin D (Cat D) (read-out: CatD IC50) was 977 µM; at Cathepsin D (Cat D) (setting [3]), greater than 800 µM; in assay [1], 0.032 µM; in assay [2] it was 0.011 µM.

For `Cc1cc(C#N)cnc1C(=O)Nc1ccc2c(c1)[C@@]1(C)N=C(N)C(C)(C)S(=O)(=O)[C@@H]1C[C@H](C)O2` [Example 57, N-((4aR,6S,11bR)-2-amino-3,3,6,11b-tetramethyl-4,4-dioxido-4a,5,6,11b-tetrahydro-3H-[1]benzoxepino[4,5-b][1,4]thiazin-10-yl)-5-cyano-3-methyl-2-pyridinecarboxamide], the IC50 at Cathepsin D (Cat D) (read-out: CatD IC50) is 1460 µM; at Cathepsin D (Cat D) (setting [3]) it was greater than 1200 µM; in assay [1] it was 0.002 µM; in assay [2], 0.0007 µM.
